Assay type in all cases: in vivo
In assay [1] the test system is liver phosphoenolpyruvate carboxykinase (PEPCK). The experiment in a line: Liver PEPCK levels by western blot in STZ-induced mice. As to conditions: borapetoside C 5.0 mg/kg, twice per day for 7 days, insulin dose not given. How it is done:
To characterize the effect of borapetoside C on liver glucose utilization, levels of liver phosphoenolpyruvate carboxykinase (PEPCK) were examined by western blot analysis in STZ-induced mice treated with borapetoside C (5.0 mg/kg, twice per day for 7 days), insulin, or a vehicle control.

The subject of assay [2] is normal mice. The experiment in a line: Lowering plasma glucose level, intraperitoneal injection, normal mice. To be noted: for Plasma Glucose Level, After / Plasma Glucose Level, Before: Normal mice; for Plasma Glucose Level, After: after treatment; for Plasma Glucose Level, Before: before treatment. The method, then:
Normal and streptozotocin (STZ)-induced diabetic mice were administered with borapetoside A (5.0 mg/kg), borapetoside C (5.0 mg/kg), glibenclamide (5.0 mg/kg), metformin (500.0 mg/kg), or a vehicle control via intraperitoneal injection. STZ-induced diabetic mice are a well-known mouse model of type I diabetes (insulin dependent). See, e.g., Liu I M, et al., Neuroscience Letters 2001; 307: 81-84. Glibenclamide and metformin serve as two positive controls in this study.
The plasma glucose levels of the treated mice were determined before and one hour after administration. The activity of lowering plasma glucose levels (AL) is calculated following the formula: […]
Borapetoside C was administered to normal mice at 0.1, 1.0, 3.0, and 5.0 mg/kg and to STZ-diabetic mice at 0.1, 1.0, 3.0, and 5.0 mg/kg. The plasma glucose levels of the treated mice were examined before and after treatment.

Assay [3] relates to normal mice. The experiment in a line: Lowering plasma glucose levels via oral administration, normal mice. As to conditions: oral 10.0 mg/kg, sixty minutes after treatment, mean ± SEM, six animals. How it is done: Normal, STZ-induced diabetic mice, and diet-induced diabetic mice were administered orally with 10.0 mg/kg borapetoside C, glibenclamide or metformin as a positive control, and a vehicle control. The plasma glucose levels of the treated mice were determined before and sixty minutes after treatment and the results thus obtained were shown in Table 3 below.

For assay [4], the system named is DIO-induced diabetic mice. Briefly: Lowering plasma glucose level, intraperitoneal injection, diet-induced obesity diabetic mice (type II diabetes model). To be noted: for plasma glucose level one hour after treatment: basal (untreated) 174.6±7.7 mg/dL. The method, then: Normal and diet-induced obesity diabetic mice (“DIO-induced diabetic mice) were administered with borapetoside A (5.0 mg/kg), borapetoside C (5.0 mg/kg), glibenclamide (5.0 mg/kg), metformin (500.0 mg/kg), or a vehicle control via intraperitoneal injection. DIO-induced diabetic mice are a well-known mouse model of type II diabetes (non-insulin dependent). See Liu et al., J Mol. Endocrinol. 2008.
The plasma glucose levels of the treated mice were determined before and one hour after administration. The activities of these compounds for lowering plasma glucose levels were calculated as described above.
Borapetoside C was administered to DIO-induced diabetic mice at 0.1, 1.0, 3.0, and 5.0 mg/kg and the plasma glucose levels were examined before and after administration. The basal plasma glucose concentration in diet-induced diabetic mice (untreated) was 174.6±7.7 mg/dL. One hour after treatment, the plasma glucose levels in mice treated with vehicle control, 0.1 mg/kg borapetoside C, 1.0 mg/kg borapetoside C, 3.0 mg/kg borapetoside C, and 5.0 mg/kg borapetoside C were 172.5±10.9 mg/dL, 170.5±6.8 mg/dL, 127.9±6.0 mg/dL, 121.3±4.3 mg/dL and 119.9±4.6 mg/dL, respectively.

Assay [5] relates to DIO-induced diabetic mice. The experiment in a line: Intraperitoneal glucose tolerance test (IPGTT), DIO-induced diabetic mice. To be noted: diet-induced diabetic mice, borapetoside C 5.0 mg/kg. How it is done: Normal ICR mice and DIO-induced diabetic mice, treated with borapetoside C (5.0 mg/kg), a vehicle control, or glibenclamide (positive control), were subjected to an intraperitoneal glucose tolerance test (IPGTT) as described in Lamont et al., Diabetes 2008; 57: 190-198. More specifically, glucose (2.0 mg/g body weight) was administered via IP injection to normal and DIO mice and blood samples were drawn from the treated mice before and 30, 60, 120, and 150 min after glucose administration for examination of glucose levels.
In diet-induced diabetic mice treated with borapetoside C, the vehicle control, and glibenclamide, the basal plasma glucose concentrations were 181.6±12.3 mg/dL, 183.1±2.9 mg/dL, and 185.3±7.7 mg/dL, respectively. Thirty minutes after intraperitoneal glucose injection, the plasma glucose concentration was elevated to 405.6±8.9 mg/dL in vehicle-treated mice, to 343.5±11.2 mg/dL in borapetoside C-treated mice, or to 339.1±15.4 mg/dL in glibenclamide-treated mice.

As to `COC(=O)C1=CCC[C@H]2[C@]3(C)C[C@@H](c4ccoc4)OC(=O)[C@@H]3C[C@@H](O[C@@H]3O[C@H](CO)[C@@H](O)[C@H](O)[C@H]3O)[C@@]12C` [borapetoside C], the “liver PEPCK levels versus vehicle control-treated mice (western blot)” value in assay [1] is on record as “much lower”. The “Plasma Glucose Level, After” value in assay [2] (0.1 mg/kg) is 97.7 ± 6.2 mg/dL; in assay [2] (1.0 mg/kg) it was 82.6 ± 2.9 mg/dL; in assay [2] (3.0 mg/kg), 79.4 ± 6.9 mg/dL; in assay [2] (5.0 mg/kg) it was 67.0 ± 4.5 mg/dL. Also, the “Plasma Glucose Level, Before” value in assay [2] (0.1 mg/kg) turned out to be 99.7 ± 3.8 mg/dL; in assay [2] (1.0 mg/kg), 96.4 ± 4.2 mg/dL; in assay [2] (3.0 mg/kg), 96.3 ± 8.0 mg/dL; in assay [2] (5.0 mg/kg), 98.2 ± 3.9 mg/dL. Further, the “Activities of Lowering Plasma Glucose Levels (AL)” value in assay [2] (normal mice, 5.0 mg/kg intraperitoneal injection, one hour after administration) is 36.2 ± 5.6%. For the same molecule, the “Activity of lowing plasma glucose levels (%)” value in assay [3] is listed as 23.1 ± 2.8 %. Also, the “plasma glucose level one hour after treatment” value is 170.5 ± 6.8 mg/dL in assay [4] (0.1 mg/kg), 127.9 ± 6.0 mg/dL in assay [4] (1.0 mg/kg), 121.3 ± 4.3 mg/dL in assay [4] (3.0 mg/kg) and 119.9 ± 4.6 mg/dL in assay [4] (5.0 mg/kg). For the same molecule, the “AL (activity of lowering plasma glucose levels)” value in assay [4] (5.0 mg/kg intraperitoneal injection, one hour after administration) was found to be 29.4±1.0%. For the same molecule, the “basal plasma glucose concentration (IPGTT)” value in assay [5] (before glucose injection) was determined as 181.6 ± 12.3 mg/dL. The “plasma glucose levels at 60 min, 120 min, and 150 min versus control mice (IPGTT)” value in assay [5] (glucose 2.0 mg/g IP) is “significantly lower”. Further, the “plasma glucose concentration thirty minutes after intraperitoneal glucose injection (IPGTT)” value in assay [5] (glucose 2.0 mg/g body weight IP, vehicle 405.6±8.9) came out at 343.5 ± 11.2 mg/dL.

Source of the values: patent US20100016213A1, “USE OF A DITERPENOID COMPOUND FOR TREATING DIABETES” (National Taiwan University, priority 2008, published 2010).
